Measurements reported in patent US8076334B2, “Prodrugs of thyroid hormone analogs” (Hoffmann-La Roche Inc., priority 2007, dated 2011).

Tests used:
Caco-2 cells = experiment: Permeability from Caco-2 cells (transport assay); format: in vitro ADME; settings: Caco-2; calculated from pro-drug only, does not include converted drug; in % (unit assumed)
Description: (§1) Caco-2 cells were grown in Minimum Essential Medium (MEM), containing 10% fetal bovine serum, 1% non-essential amino acids, 100 units/ml penicillin and 100 μg/ml streptomycin. They were incubated at 37° C. in a humidified atmosphere of 5% CO2. Culture medium was changed every other day. Caco-2 cells were passed once per week by trypsinization.
(§2) Caco-2 cells were seeded at a density of 4.55×10^5 cells/cm^2. Caco-2 cells were incubated for 7 days at 37° C. Medium was changed every two or three days for Caco-2 cells. Prior to the experiment, cells were equilibrated with transport medium [HBSS (pH 7.4) containing 10 mM HEPES] at 37° C. for 30 min. The transepithelial electrical resistance (TEER) of cell monolayers was measured using “chopstick” electrodes (World Precision Instruments, Sarasota, Fla.). Caco-2 cell monolayers with TEER values>500 were used for the assays.
(§3) Samples were prepared in transport medium containing 1% DMSO. Test compounds were applied to the donor chamber at 10 μM. Plates were incubated at 37 °C while shaking at 90 rpm. Samples were taken at 60 and 120 min from the receiver chamber. TEER values were measured at 5 minutes before the final sampling time point. Samples were mixed with 2 volumes of acetonitrile and centrifuged at 3,500 rpm at 4° C. for 10 min. The supernatant was diluted with 1 volume of water containing 1% acetic acid. Samples were analyzed by LC/MS. Standard serial dilutions were prepared manually at 10, 50, 250, 1,250 and 2,500 nM.
(§4) The apparent permeability (Papp) was calculated with the following equation:
(§5) [formula] where C is the receiver chamber drug concentration, t is time in second, V is the volume of the receiver chamber, Co is the initial drug concentration in the donor chamber and A is the surface area of the filter.

[1] = Permeability from Caco-2 cells (transport assay); format: in vitro ADME; settings: human; Caco-2 monolayers, transport medium pH 7.4, samples at 60 and 120 min
Description: as §1, §2, §3, §4, §5

THR-beta/RXR/GRIP = target: T1, THR-beta/RXR/GRIP (Homo sapiens, UniProt P10828); experiment: THR-beta/RXR/GRIP coactivator peptide recruitment assay (HTRF); format: biochemical; settings: H6-TRβ ligand binding domain, EE-RxRα, biotin-GRIP peptide
T1 construct: made in house; host or cells: E. coli BL21 (DE3) for H6-TRβ; E. coli for EE-RxRα
T1 sequence (P10828 202-461 limits assumed): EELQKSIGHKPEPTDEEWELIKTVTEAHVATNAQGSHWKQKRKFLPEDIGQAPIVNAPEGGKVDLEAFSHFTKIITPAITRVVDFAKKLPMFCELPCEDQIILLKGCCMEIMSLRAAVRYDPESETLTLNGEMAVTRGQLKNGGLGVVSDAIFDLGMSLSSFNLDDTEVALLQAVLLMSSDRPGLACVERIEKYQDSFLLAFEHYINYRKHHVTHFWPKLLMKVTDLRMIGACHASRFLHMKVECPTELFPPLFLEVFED
T1 sequence (P19793 225-462 partner limits assumed): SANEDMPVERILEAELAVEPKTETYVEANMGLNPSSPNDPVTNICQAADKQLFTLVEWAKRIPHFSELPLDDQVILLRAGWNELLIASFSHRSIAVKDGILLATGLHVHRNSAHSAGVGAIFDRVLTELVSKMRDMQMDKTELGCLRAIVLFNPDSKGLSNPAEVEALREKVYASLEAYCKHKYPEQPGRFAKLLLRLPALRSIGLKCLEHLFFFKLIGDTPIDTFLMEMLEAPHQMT
T1 sequence (Q15596 679-703 partner limits assumed): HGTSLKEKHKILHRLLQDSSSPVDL
Description: In this Example, a TR/RXR/GRIP assay was used to test representative compounds of formula (I).
Lysozyme (1.0 mg/ml, Sigma) and Complete Protease Inhibitor Cocktail (Roche Diagnostics Gmbh) were added to slurry and solution sonicated for one min five times at 4° C.
The resulting His6-EE-tagged protein was produced in E. coli cells. Cells were grown using shake flasks with an 18 hour induction in 0.1 mM IPTG at 18° C., harvested and suspended with five volumes of Buffer B (0.025M Tris, 0.3M NaCl, 0.02 M imidazole, 0.01M β-mercaptoethanol, pH 8.0). Lysozyme (0.2 mg/ml, Sigma) and Complete Protease Inhibitor Cocktail (Roche Diagnostics Gmbh) were added and stirred for 30 min. at 4° C. The suspension was sonicated for 30 seconds, five times, at 4° C. The suspension was centrifuged for 20 min. at 12,000 RCF. The supernatant was filtered by 0.45 μm pore size membrane and 0.5% NP-40 was added. […] The protein was concentrated and dialyzed.
The His6 tag was removed from EE-RxRα by thrombin digestion, using 10 units thrombin (Pharmacia, Piscataway, N.J.) per mg protein and incubating for 2 hours at 25° C. […]
Six microliters of T3 (0-14.8 uM) or test compound (0-1.2 mM) in DMSO was then added and the solution incubated at 37° C. for 30 min. […] The HTRF signal was read on the Victor 5 reader (PerkinElmer Life and Analytical Sciences).

[2] = Single dose PO PK in rats; format: in vivo; settings: rat, 10 mg/kg PO
Description: A single dose (10 mg/kg) PO (intubation) PK in rats (3 animals) was performed with the compound of Example 5 using a 2% Klucel, 0.1% Tween 80 in water formulation.
Aliquots (0.05 mL) of rat plasma were protein precipitated with acetonitrile. The extracts were diluted with an equal volume of water and injected onto the LC/MS/MS system.
Both the prodrug and parent, compound Ia, were monitored. […] Variability in exposure of the parent after dosing with the prodrug was improved over that obtained after dosing with parent.

[3] = Single dose PO PK in dogs; format: in vivo; settings: dog, 10 mg/kg PO
Description: A single dose (10 mg/kg) PO (intubation) PK in dogs (3 animals) was performed with the compound of Example 5 using a 2% Klucel, 0.1% Tween 80 in water formulation.
Aliquots (0.05 mL) of dog plasma were mixed with 0.050 mL of pH 7.4 phosphate buffered saline and a 0.010 mL aliquot of a stable labeled internal standard working solution. Each of the samples was then extracted with 0.500 mL of ethyl acetate. A 0.350 mL aliquot of each of the sample extract supernatant was transferred to an injection block and evaporated to dryness using the turbovap evaporator. The sample was then reconstituted with 0.200 mL of a 1:1 mixture of water:acetonitrile containing 0.1% acetic acid. A 0.020 mL sample from each well was injected onto the LC/MS/MS system.
The compound of Example 5was dosed orally to dogs at 10 mg/kg. Both the prodrug and parent, compound Ia, were monitored. […] However, the variability in the oral exposure was reduced when dosed with the compound of Example 5 as compared when dosed with parent.

[4] = plasma level of parent compound Ia

SMILES | Mass Balance (Caco-2 cells) | Papp at 120 min, 10 μM [1] [×10⁻⁶ cm/s] | further results
CC(C)c1cc(Oc2c(Cl)cc(-n3nc(C#N)c(=O)[nH]c3=O)cc2Cl)nn(COC(=O)c2cnccn2)c1=O [Example 8, Pyrazine-2-carboxylic acid 3-[2,6-dichloro-4-(6-cyano-3,5-dioxo-4,5-dihydro-3H-[1,2,4]triazin-2-yl)-phenoxy]-5-isopropyl-6-oxo-6H-pyridazin-1-ylmethyl ester] | 92.8 | 0.92 ± 0.11 | –
CC(C)c1cc(Oc2c(Cl)cc(-n3nc(C#N)c(=O)[nH]c3=O)cc2Cl)nn(COC(=O)N2CCOCC2)c1=O [Example 6, Morpholine-4-carboxylic acid 3-[2,6-dichloro-4-(6-cyano-3,5-dioxo-4,5-dihydro-3H-[1,2,4]triazin-2-yl)-phenoxy]-5-isopropyl-6-oxo-6H-pyridazin-1-ylmethyl ester] | 101.5 | 1.24 ± 0.24 | –
CC(=O)OCn1nc(Oc2c(Cl)cc(-n3nc(C#N)c(=O)[nH]c3=O)cc2Cl)cc(C(C)C)c1=O [Example 2, Acetic acid 3-[2,6-dichloro-4-(6-cyano-3,5-dioxo-4,5-dihydro-3H-[1,2,4]triazin-2-yl)-phenoxy]-5-isopropyl-6-oxo-6H-pyridazin-1-ylmethyl ester] | 71.0 | 4.58 ± 0.74 | –
CC(C)C(=O)OCn1nc(Oc2c(Cl)cc(-n3nc(C#N)c(=O)[nH]c3=O)cc2Cl)cc(C(C)C)c1=O [Example 5, Isobutyric acid 3-[2,6-Dichloro-4-(6-cyano-3,5-dioxo-4,5-dihydro-3H-[1,2,4]triazin-2-yl)-phenoxy]-5-isopropyl-6-oxo-6H-pyridazin-1-ylmethyl ester] | 47.9 | 8.87 ± 0.63 | EC50 (THR-beta/RXR/GRIP): > 57.6 µM; Absorption of the prodrug compared with the parent [2]: faster than the parent; Variability in exposure of the parent after dosing with the prodrug versus dosing with parent [2]: improved; Species detected in plasma after oral dosing of the prodrug ([2]; prodrug and parent monitored): only the parent was detected; Bioavailability of parent after dosing with the prodrug versus dosing with parent [3]: comparable; Variability in the oral exposure versus dosing with parent [3]: reduced; Species detected in plasma after oral dosing of the prodrug ([3]; prodrug and parent monitored): only the parent was detected
CC(C)c1cc(Oc2c(Cl)cc(-n3nc(C#N)c(=O)[nH]c3=O)cc2Cl)n[nH]c1=O [Ia, 2-[3,5-Dichloro-4-(5-isopropyl-6-oxo-1,6-dihydro-pyridazin-3-yloxy)-phenyl]-3,5-dioxo-2,3,4,5-tetrahydro-[1,2,4]triazine-6-carbonitrile, reference compound] | – | – | AUC Extrap [2, 4]: 28,663 ng * Hours/mL; Tmax [2, 4]: 5 h; AUC [3, 4]: 2,936 ng * Hours/mL; Tmax [3, 4]: 3 h

The next lines start with results.

Mass Balance (Caco-2 cells) | Papp at 120 min, 10 μM [1] [×10⁻⁶ cm/s] | SMILES | further results
95.0 | 1.75 ± 0.65 | CC(C)c1cc(Oc2c(Cl)cc(-n3nc(C#N)c(=O)[nH]c3=O)cc2Cl)nn(COC(=O)CN2CCOCC2)c1=O [Example 12, Morpholin-4-yl-acetic acid 3-[2,6-dichloro-4-(6-cyano-3,5-dioxo-4,5-dihydro-3H-[1,2,4]triazin-2-yl)-phenoxy]-5-isopropyl-6-oxo-6H-pyridazin-1-ylmethyl ester] | –
84.4 | 0.23 ± 0.06 | CC(C)c1cc(Oc2c(Cl)cc(-n3nc(C#N)c(=O)[nH]c3=O)cc2Cl)nn(COC(=O)CCC(=O)O)c1=O [Example 13, Succinic acid mono-{3-[2,6-dichloro-4-(6-cyano-3,5-dioxo-4,5-dihydro-3H-[1,2,4]triazin-2-yl)-phenoxy]-5-isopropyl-6-oxo-6H-pyridazin-1-ylmethyl}ester] | –
